Data on 1 compound can be found in publication PMC9632963, “Preclinical characterization and phase I clinical trial of CT053PTSA targets MET, AXL, and VEGFR2 in patients with advanced solid tumors” (Frontiers in Immunology, 2022).

Test [1] deals with MLK. The test can be described thus: Kinase inhibition assay (LANCE or HTRF). The test is classed as biochemical, human. The settings on record: ATP at Km. A general note: In TR-FRET formats the signal depends on donor and acceptor labels being close together.
Description: (§2) The IC50 values were determined by measuring phosphorylation of peptide substrate poly at ATP concentrations at the Km.
In test [2] the target is TXK (Homo sapiens, UniProt P42681). Kind of test: Kinase inhibition assay (LANCE or HTRF). The settings on record: ATP at Km. The test is classed as biochemical.
Description: as §2
Test [3] has as its target KinomeScan panel of 95 kinase binding assays. Kind of test: KinomeScan kinase binding assay, panel of 95 kinase assays. The note with it: 10 μM single concentration. Here is the method:
KinomeScan kinase binding assays were performed as described in reports i.
%Ctrl Calculation: [test compound signal-positive control signalnegative control signal-positive control signal]?100
test compound = compound submitted by Calitor; negative control = DMSO (100%Ctrl); positive control = control compound (0%Ctrl).

The subject of test [4] is NUGC3. The test can be described thus: Cell proliferation assay (CellTiter-Glo, 72 hours). The test is classed as cell-based. The settings on record: Homo sapiens, NUGC-3, read-out: IC50 anti-proliferative. A general note: Cellular ATP, detected with luciferase, serves as a proxy for viable cell number.
Description: Human gastric tumor cell lines with high MET expression levels, namely, the GTL-16, MKN45, SNU638, Hs746T, SNU-620, and SNU-5 cell lines, were used in the assay. These cell lines were obtained from American Type Culture Collection (ATCC), Japanese Collection of Research Bioresources (JCRB), Shanghai Institutes of Biological Sciences, CAS (SIBS), Korean Cell Line Bank (KCLB) or National Institutes of Health (NIH). […] Cell viability was measured after 72 hours using a CellTiter-Glo Luminescent Cell Viability Assay Kit (Promega, WI, USA) according to the manufacturer’s instructions.
Test [5] deals with GA0046 PDX xenografts. Kind of test: In vivo efficacy study, PDX model. Set-up: species or system immunodeficient mice. Here is the method: (§1) Human tumor xenografts were established in female BALB/cA nude mice (5-6 weeks old) by administering the SNU-5 and MKN-45 cells, which have high MET expression levels. For efficacy studies in patient-derived tumor xenograft (PDX) mouse models, MET-overexpressing GA0046 and GA3121 tumors (obtained from Crownbio, CA, USA) were established by directly implanting surgical tissues into immunodeficient mice. […] The subcutaneous tumor size and body weight were measured twice weekly. The tumor volumes were determined by measuring two perpendicular diameters with calipers and calculated as (length × width^2)/2.

Test [6] concerns GA3121 PDX xenografts. Kind of test: In vivo efficacy study, PDX model. The note with it: 20 mg/kg once per day oral gavage. Details: species or system immunodeficient mice. On the procedure: as §1
Test [7] deals with FLT3 (Homo sapiens, UniProt P36888). The test can be described thus: Cellular kinase phosphorylation assay (sandwich ELISA), FLT3-wt-MEFs, FLT3-ligand stimulated. The test is classed as cell-based. Details: MEFs expressing full-length human FLT3 (FLT3-wt-MEFs); expressed in transfected cells; host or cells: mouse embryonic fibroblasts (MEFs). The note with it: FLT3-ligand 50 ng/ml. A general note: An ELISA detects its analyte on a solid surface through an enzyme-linked reagent.
Description: Phosphorylation of the receptors MET, AXL, VEGFR2, and FLT3 was assessed in the transgenic human MKN45 gastric tumor cell line overexpressing MET, mouse embryonic fibroblasts (MEFs) expressing full-length human AXL (AXL-MEFs), human umbilical vein endothelial cells (HUVECs) overexpressing VEGFR-2, and MEFs expressing full-length human FLT3 (FLT3-wt-MEFs), respectively. […] Then, HUVECs and FLT3-wt-MEFs were stimulated with the ligands VEGF-A (100 ng/ml, for 3 min) and FLT3-ligand (50 ng/ml, for 5 min). MKN45 (overexpressing MET) and AXL-MEFs cells had no stimulation. […] Raw data were converted into percent substrate phosphorylation relative to high controls, which were set to 100%.

Each structure is given as a SMILES string. Where only a bound is given, the exact number is not on record here.

Sequence of FLT3 (P36888 27-993): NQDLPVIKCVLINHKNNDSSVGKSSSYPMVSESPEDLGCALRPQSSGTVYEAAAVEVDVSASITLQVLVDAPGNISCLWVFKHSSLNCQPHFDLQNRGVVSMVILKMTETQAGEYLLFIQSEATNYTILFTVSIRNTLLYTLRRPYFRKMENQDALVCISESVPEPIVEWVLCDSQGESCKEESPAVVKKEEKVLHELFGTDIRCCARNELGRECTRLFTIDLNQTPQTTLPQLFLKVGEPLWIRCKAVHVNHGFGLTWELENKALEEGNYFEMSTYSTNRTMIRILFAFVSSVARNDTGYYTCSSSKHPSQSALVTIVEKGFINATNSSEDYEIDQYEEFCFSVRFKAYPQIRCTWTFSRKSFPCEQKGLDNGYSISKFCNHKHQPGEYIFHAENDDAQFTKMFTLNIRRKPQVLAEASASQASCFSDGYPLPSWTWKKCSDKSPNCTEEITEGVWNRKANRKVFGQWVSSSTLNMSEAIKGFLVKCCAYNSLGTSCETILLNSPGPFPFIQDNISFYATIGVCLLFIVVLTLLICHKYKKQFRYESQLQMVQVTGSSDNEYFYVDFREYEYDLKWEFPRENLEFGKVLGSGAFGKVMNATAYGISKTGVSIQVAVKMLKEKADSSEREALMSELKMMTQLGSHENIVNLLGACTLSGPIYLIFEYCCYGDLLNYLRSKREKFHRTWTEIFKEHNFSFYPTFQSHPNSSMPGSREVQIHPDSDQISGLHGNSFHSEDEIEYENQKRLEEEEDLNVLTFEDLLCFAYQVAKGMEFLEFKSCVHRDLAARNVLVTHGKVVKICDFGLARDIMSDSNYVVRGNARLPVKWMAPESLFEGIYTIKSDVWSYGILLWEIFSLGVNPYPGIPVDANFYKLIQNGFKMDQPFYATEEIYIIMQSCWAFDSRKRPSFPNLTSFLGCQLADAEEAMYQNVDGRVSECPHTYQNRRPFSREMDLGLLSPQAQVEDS
Sequence of TXK (P42681 whole entry): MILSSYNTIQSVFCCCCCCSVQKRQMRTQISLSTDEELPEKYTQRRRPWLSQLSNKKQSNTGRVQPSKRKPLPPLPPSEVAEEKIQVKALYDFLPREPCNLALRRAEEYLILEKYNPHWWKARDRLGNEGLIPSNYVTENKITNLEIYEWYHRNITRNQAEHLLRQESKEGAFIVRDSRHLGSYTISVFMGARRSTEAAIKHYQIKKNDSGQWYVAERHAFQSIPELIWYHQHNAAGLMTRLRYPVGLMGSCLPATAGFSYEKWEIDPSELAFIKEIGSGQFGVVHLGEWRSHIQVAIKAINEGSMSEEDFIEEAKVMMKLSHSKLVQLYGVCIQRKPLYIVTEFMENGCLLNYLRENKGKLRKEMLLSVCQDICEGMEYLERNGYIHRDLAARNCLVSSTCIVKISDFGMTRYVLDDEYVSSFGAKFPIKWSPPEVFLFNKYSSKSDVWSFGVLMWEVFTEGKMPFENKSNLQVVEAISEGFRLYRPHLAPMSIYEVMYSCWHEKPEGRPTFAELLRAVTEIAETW

Usually IC50 stands for the concentration that gives 50% inhibition. Turning to `Cc1c(C(=O)Nc2ccc(Oc3ccnc4cc(OCC(C)(C)O)ccc34)c(F)c2)c(=O)n(-c2ccccc2)n1C` [CT053], the IC50 is 160 nM in test [1], 270 nM in test [2], greater than 10000 nM in test [4] and 1.5 nM in test [7]. The kinase interaction pattern result in test [3] was “highly specific”. For the same compound, the TGI in test [5] (3 mg/kg once per day oral gavage) is given as 18%; in test [5] (10 mg/kg once per day oral gavage), 57%; in test [5] (20 mg/kg once per day oral gavage) it was 75%; in test [6], 172%.
